# From article PMC3085641 (Bioorganic & medicinal chemistry letters, 2011)
# Molecular target: dopamine transporter (DAT) (Rattus norvegicus, UniProt P23977)
# Test: biochemical
# Chain of dopamine transporter (DAT) (P23977 whole entry): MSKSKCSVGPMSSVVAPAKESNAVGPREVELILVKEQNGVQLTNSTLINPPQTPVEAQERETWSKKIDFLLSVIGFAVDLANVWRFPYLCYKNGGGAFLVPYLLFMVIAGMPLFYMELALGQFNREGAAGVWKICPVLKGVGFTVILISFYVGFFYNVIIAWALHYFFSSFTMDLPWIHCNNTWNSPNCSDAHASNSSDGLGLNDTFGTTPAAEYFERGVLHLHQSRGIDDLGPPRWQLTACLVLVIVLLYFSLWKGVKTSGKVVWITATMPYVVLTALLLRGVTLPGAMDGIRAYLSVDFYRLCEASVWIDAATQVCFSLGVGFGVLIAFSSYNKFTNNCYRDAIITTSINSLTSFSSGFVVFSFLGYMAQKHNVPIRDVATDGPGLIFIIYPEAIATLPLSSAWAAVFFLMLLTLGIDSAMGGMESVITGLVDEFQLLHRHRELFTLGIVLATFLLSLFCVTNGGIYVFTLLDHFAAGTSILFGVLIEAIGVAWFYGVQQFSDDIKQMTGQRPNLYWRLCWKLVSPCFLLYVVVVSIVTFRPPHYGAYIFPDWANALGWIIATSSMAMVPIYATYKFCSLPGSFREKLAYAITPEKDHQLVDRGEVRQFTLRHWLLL
smiles,measurement,value
CN1C2CCC1[C@@H](CNc1ccc(Br)nc1)[C@@H](c1ccc(Cl)cc1)C2 (stereo partly shown) [Compound 6b],Ki,17 nM
